Source: patent EP3381898A1, “SYMMETRICAL TRIS-ARYL-AMIDE DERIVATIVES AND THEIR USE AS ANTI-HEPARANASE” (priority 2017, dated 2018)

Legend:
Format in all cases: cell-based, human
[1] = test system: genes encoding for proangiogenic factors; assay: Real-Time Quantitative PCR in HT1080 cells, summary statement for all factors; settings: 2.5 µM, result in words
Procedure: (§1) To evaluate the effect of heparanase inhibitors on the tumor transcription of genes encoding for proangiogenic factors, such as FGF1/2, VEGF, MMP-9, HSPE-1, the relative mRNA levels were analyzed by quantitative Real-Time Quantitative PCR.
To perform the assay, HT1080 (human fibrosarcoma) cells were cultured in complete medium containing 10%FCS (fetal calf serum). Cells were plated in 24-well plates and treated at fixed concentration (i.e., highest non-toxic concentration) of test compounds. After 24 h, cells were detached, collected and total RNA extracted by RNeasy Mini Kit (QIAGEN). Following reverse transcription step, FGF1/2, VEGF, MMP-9, HSPE-1 mRNA levels, were quantified by qPCR using the advanced Universal SYBR Green Supermix (Bio Rad) and ABI PRISM 7900HT Thermal Cycler System (Perkin Elmer), according to the manufacturer's instructions. Appropriate no-RT and non-template controls were included in each 96-well PCR reaction, and dissociation analysis was performed at the end of each run to confirm the specificity of the reaction. Relative levels of RNA were calculated using the ddCt method. Standard curve and sample data were run in duplicate. In Table 4 a mean value is reported. […]

[2] = test system: FGF-1; assay: Real-Time Quantitative PCR of mRNA gene expression in HT1080 cells; settings: 24 h, 2.5 uM, mean value
Procedure: as §1
(§2) To perform the assay, HT1080 (human fibrosarcoma) cells were cultured in complete medium containing 10%FCS (fetal calf serum). Cells were plated in 24-well plates and treated at fixed concentration (i.e., highest non-toxic concentration) of test compounds. After 24 h, cells were detached, collected and total RNA extracted by RNeasy Mini Kit (QIAGEN). Following reverse transcription step, FGF1/2, VEGF, MMP-9, HSPE-1 mRNA levels, were quantified by qPCR using the advanced Universal SYBR Green Supermix (Bio Rad) and ABI PRISM 7900HT Thermal Cycler System (Perkin Elmer), according to the manufacturer's instructions. Appropriate no-RT and non-template controls were included in each 96-well PCR reaction, and dissociation analysis was performed at the end of each run to confirm the specificity of the reaction. Relative levels of RNA were calculated using the ddCt method. Standard curve and sample data were run in duplicate. In Table 4 a mean value is reported.

[3] = test system: FGF-2; assay: as above; settings: 24 h, 2.5 uM, mean value
Procedure: as §1, §2

[4] = test system: HPSE-1; assay: as above; settings: 24 h, 2.5 uM, mean value
Procedure: as §1, §2

[5] = test system: MMP-9; assay: as above; settings: 24 h, 2.5 uM, mean value
Procedure: as §1, §2

[6] = test system: VEGF; assay: as above; settings: 24 h, 2.5 uM, mean value
Procedure: as §1, §2

“2,2'-{carbonylbis[imino[5-(trifluoromethyl)-3,1-phenylene]carbonylimino(1-methyl-1H-pyrrole-4,2-diyl)carbonylimino-3,1-phenylene(1-oxoethane-2,1-diyl)imino]}diethanoic acid [Compound 12i]” was tested, and the “inhibition of genes expression encoding for proangiogenic factors” value [1] was “significant inhibition”, the “Gene Expression (% mRNA vs. control) FGF-1” value [2] was ~ 53% and the “Gene Expression (% mRNA vs. control) FGF-2” value [3] was ~ 82%. The “Gene Expression (% mRNA vs. control) HPSE-1” value [4] was ~ 63%, the “Gene Expression (% mRNA vs. control) MMP-9” value [5] was ~ 50% and the “Gene Expression (% mRNA vs. control) VEGF” value [6] was ~ 55%.
